Where “and” joins values, the source holds several entries; their conditions need not be identical. Identical values can stand only once. Records with an inconclusive call do not appear.

This assay has as its system BDF1 mice, Friend leukemia sc, tumor weight T/C. Description: NCI In Vivo Anticancer Drug Screen. Data for tumor model Friend Virus Leukemia (Solid) (subcutaneous) in B6D2F1 (BDF1) mice. As to conditions: endpoint: mean tumor weight, schedule: Q01DX011 (ip), higher = larger tumour. How it is done:
The antitumor activity of compounds was measured in mice bearing transplantable tumors. Survival or tumor size were measured and the results are expressed as the measurement made in the treated group (T) divided by the measurement made in the vehicle treated control group (C). The tumor model used in this assay is Friend Virus Leukemia (Solid) (subcutaneous) in B6D2F1 (BDF1) mice

[1] abbreviates: dose: 37.5 mg/kg/injection, vehicle: carboxymethylcellulose (CMC).
The mark [2] stands for this setting: dose: 250.0 mg/kg/injection, vehicle: carboxymethylcellulose (CMC).
The mark [3] stands for this setting: dose: 500.0 mg/kg/injection, vehicle: carboxymethylcellulose (CMC).
Setting [4] is: dose: 3.0 mg/kg/injection, vehicle: carboxymethylcellulose (CMC).
Where [5] appears, read: dose: 6.0 mg/kg/injection, vehicle: carboxymethylcellulose (CMC).
[6] abbreviates: dose: 19.0 mg/kg/injection, vehicle: carboxymethylcellulose (CMC).
[7] abbreviates: dose: 125.0 mg/kg/injection, vehicle: carboxymethylcellulose (CMC).
Where [8] appears, read: dose: 25.0 mg/kg/injection, vehicle: carboxymethylcellulose (CMC).
Setting [9] is: dose: 50.0 mg/kg/injection, vehicle: carboxymethylcellulose (CMC).
Setting [10] is: dose: 100.0 mg/kg/injection, vehicle: carboxymethylcellulose (CMC).
The mark [11] stands for this setting: dose: 62.5 mg/kg/injection, vehicle: carboxymethylcellulose (CMC).

Take `O=C(C[N+]12CN3CN(CN(C3)C1)C2)c1ccc(Cl)cc1`: the T/C under setting [1] is 101 % of control; the T/C (dose: 150.0 mg/kg/injection, vehicle: carboxymethylcellulose (CMC)) is 117 % of control; the T/C (dose: 300.0 mg/kg/injection, vehicle: carboxymethylcellulose (CMC)) is 93 % of control.

As to `NC(CO)C(=O)O` (stereo not given), the T/C was 108 % of control under setting [2] and 112 % of control under setting [3].

Turning to `Cc1c2ccc3ccccc3c2c[n+]2ccccc12`, the T/C is, setting by setting: under setting [4], 97 % of control; under setting [5], 105 % of control; (dose: 24.0 mg/kg/injection, vehicle: carboxymethylcellulose (CMC)) 61 % of control and 37 % of control.

Regarding `CNS(=O)(=O)c1ncnc2nc[nH]c12`, the T/C runs as follows: (dose: 20.0 mg/kg/injection, vehicle: carboxymethylcellulose (CMC)) 94 % of control; (dose: 26.0 mg/kg/injection, vehicle: carboxymethylcellulose (CMC)) 86 % of control; (dose: 35.0 mg/kg/injection, vehicle: carboxymethylcellulose (CMC)) 96 % of control; (dose: 70.62 mg/kg/injection, vehicle: carboxymethylcellulose (CMC)) 43 % of control; (dose: 107.0 mg/kg/injection, vehicle: carboxymethylcellulose (CMC)) 49 % of control.

Turning to `N[C@@H](Cc1ccc(N(CCCl)CCCl)cc1)C(=O)O`, the T/C reads like this: (dose: 1.25 mg/kg/injection, vehicle: carboxymethylcellulose (CMC)) 84 % of control; (dose: 2.5 mg/kg/injection, vehicle: carboxymethylcellulose (CMC)) 50 % of control; (dose: 3.75 mg/kg/injection, vehicle: carboxymethylcellulose (CMC)) 53 % of control; (dose: 4.0 mg/kg/injection, vehicle: carboxymethylcellulose (CMC)) 35 % of control; (dose: 5.0 mg/kg/injection, vehicle: carboxymethylcellulose (CMC)) 35 % of control.

Consider `O=C1CN(/N=C\c2ccc([N+](=O)[O-])o2)C(=O)N1`, for which the T/C was 101 % of control (dose: 4.7 mg/kg/injection, vehicle: carboxymethylcellulose (CMC)); 91 % of control and 96 % of control (dose: 9.5 mg/kg/injection, vehicle: carboxymethylcellulose (CMC)); 96 % of control and 100 % of control under setting [6].

For the molecule `CCCCSc1nc(N)nc2c1ncn2CC(C)CC` (stereo not given), the T/C is 68 % of control under setting [7], 75 % of control under setting [2] and 23 % of control under setting [3].

Turning to `NNC(=O)NC(=O)NN`, the T/C by setting is: (dose: 9.62 mg/kg/injection, vehicle: carboxymethylcellulose (CMC)) 90 % of control; (dose: 19.25 mg/kg/injection, vehicle: carboxymethylcellulose (CMC)) 100 % of control; (dose: 77.0 mg/kg/injection, vehicle: carboxymethylcellulose (CMC)) 105 % of control.

On to `CCCCCCCCCCCCCCCCC(C(=O)O)C(O)(CC(=O)O)C(=O)O` (stereo not given), for which the T/C was 107 % of control under setting [6]; 100 % of control under setting [1]; 35 % of control (dose: 75.0 mg/kg/injection, vehicle: carboxymethylcellulose (CMC)).

`CCCC(Sc1nc(N)nc2nc[nH]c12)C(=O)O` (stereo not given): the T/C by setting is: (dose: 40.0 mg/kg/injection, vehicle: carboxymethylcellulose (CMC)) 77 % of control; (dose: 80.0 mg/kg/injection, vehicle: carboxymethylcellulose (CMC)) 45 % of control; (dose: 160.0 mg/kg/injection, vehicle: carboxymethylcellulose (CMC)) 5 % of control.

Turning to `CNC=O`, the T/C by setting is: (dose: 12.5 mg/kg/injection, vehicle: carboxymethylcellulose (CMC)) 80 % of control; under setting [8], 57 % of control and 38 % of control; (dose: 41.62 mg/kg/injection, vehicle: carboxymethylcellulose (CMC)) 124 % of control; (dose: 42.0 mg/kg/injection, vehicle: carboxymethylcellulose (CMC)) 92 % of control; (dose: 43.0 mg/kg/injection, vehicle: carboxymethylcellulose (CMC)) 79 % of control; under setting [9], 43 % of control. In addition, the T/C by setting is: (dose: 83.25 mg/kg/injection, vehicle: carboxymethylcellulose (CMC)) 92 % of control; (dose: 85.0 mg/kg/injection, vehicle: carboxymethylcellulose (CMC)) 91 % of control; (dose: 86.0 mg/kg/injection, vehicle: carboxymethylcellulose (CMC)) 109 % of control; under setting [10], 53 % of control; (dose: 176.5 mg/kg/injection, vehicle: carboxymethylcellulose (CMC)) 91 % of control; (dose: 200.0 mg/kg/injection, vehicle: carboxymethylcellulose (CMC)) 39 % of control. The T/C by setting is: under setting [2], 84 % of control; (dose: 275.0 mg/kg/injection, vehicle: carboxymethylcellulose (CMC)) 57 % of control; (dose: 343.0 mg/kg/injection, vehicle: carboxymethylcellulose (CMC)) 41 % of control.

As for `CCCNC(=NC)c1ccc(NC(=O)c2ccc(C(=O)Nc3ccc(C(=NC)NCCC)cc3)cc2)cc1`, the T/C runs as follows: under setting [4], 80 % of control; under setting [5], 65 % of control.

Regarding `O=C(O)c1cc(O)c(O)c(O)c1`, the T/C (dose: 50.0 mg/kg/injection, vehicle: alkali diluted with saline) was 85 % of control; the T/C (dose: 100.0 mg/kg/injection, vehicle: alkali diluted with saline) is 79 % of control; the T/C (dose: 200.0 mg/kg/injection, vehicle: alkali diluted with saline) was 84 % of control; the T/C (dose: 400.0 mg/kg/injection, vehicle: alkali diluted with saline) was 95 % of control.

Consider `Cc1ccc(N=NN(C)C)cc1`, for which the T/C under setting [8] was 110 % of control, the T/C under setting [9] was 90 % of control and the T/C under setting [10] was 28 % of control.

`CC(Cl)CN(Cc1cc(O)c(CN(CC(C)Cl)CC(C)Cl)cc1O)CC(C)Cl` (stereo not given): the T/C is 66 % of control under setting [11] and 44 % of control under setting [7].

For `O=c1[nH]cnc2n[nH]nc12`, the T/C was 71 % of control under setting [11]; 55 % of control under setting [7]; 31 % of control and 36 % of control under setting [2]; 11 % of control and 17 % of control under setting [3].

Take `Fc1ccc(CSc2ncnc3c2ncn3C2CCCCO2)cc1` (stereo not given): the T/C is 10 % of control (dose: 90.0 mg/kg/injection, vehicle: carboxymethylcellulose (CMC)) and 1 % of control (dose: 180.0 mg/kg/injection, vehicle: carboxymethylcellulose (CMC)).

Turning to `CC1NC(=O)NC1CCCCCC(=O)O` (stereo not given), the T/C is, setting by setting: (dose: 89.0 mg/kg/injection, vehicle: carboxymethylcellulose (CMC)) 169 % of control; (dose: 178.0 mg/kg/injection, vehicle: carboxymethylcellulose (CMC)) 119 % of control.

Consider `CCn1cnc2c(=S)nc(N)[nH]c21`, for which the T/C is 76 % of control (dose: 0.5 mg/kg/injection, vehicle: carboxymethylcellulose (CMC)); 89 % of control (dose: 1.0 mg/kg/injection, vehicle: carboxymethylcellulose (CMC)); 24 % of control and 49 % of control under setting [4]; 11 % of control (dose: 7.0 mg/kg/injection, vehicle: carboxymethylcellulose (CMC)); 4 % of control and 18 % of control (dose: 15.0 mg/kg/injection, vehicle: carboxymethylcellulose (CMC)).

For `N#Cc1cn(C2OC(CO)C(O)C2O)c2ncnc(N)c12` (stereo not given), the T/C by setting is: (dose: 0.05 mg/kg/injection, vehicle: carboxymethylcellulose (CMC)) 68 % of control; (dose: 0.1 mg/kg/injection, vehicle: carboxymethylcellulose (CMC)) 72 % of control; (dose: 0.15 mg/kg/injection, vehicle: carboxymethylcellulose (CMC)) 71 % of control.

Source of the values: PubChem BioAssay AID228 (DTP/NCI, 2004).
